From patent US20140121185A1 (Medicon Pharmaceuticals, Inc., priority 2012, published 2014)

Legend:
[1] = test system: p-ERK and p-AKT; assay: Immunoblotting of MIA PaCa-2 xenografts; type: in vivo, nude mice
Method: B: Immunoblots of p-ERK, ERK, p-AKT and AKT in whole cell protein extracts from MIA PaCa-2 xenografts. Loading control: β-actin.
(§1) The inhibition of Ras by P-FTS 35 was further confirmed in vivo. The Ras-GTP pull down assay was used to test the capacity of P-FTS 35 to inhibit active Ras in fresh protein lysates from MIA PaCa-2 xenografts. Compared to controls, P-FTS 35, 50 and 100 mg/kg reduced RAS activation in xenografts by 62% and 70%, respectively (p<0.01, for both; FIG. 8A).

[2] = test system: p-c-RAF; assay: Immunostaining of xenograft tissue sections; type: in vivo, nude mice; conditions: compared to control
[3] = test system: MIA PaCa-2 cells; assay: Pancreatic cancer xenograft model in nude mice; type: in vivo; conditions: for reduction of tumor volume growth: day 25
Method: The in vivo chemotherapeutic potential of P-FTS 35 was assessed using a pancreatic cancer xenograft model. MIA PaCa-2 cells were injected subcutaneously into the flank areas of nude mice. When palpable tumors were observed, the mice received P-FTS 35, 50 or 100 mg/kg/d by oral gavage in corn oil or just corn oil (control) for 25 days. On day 25 of treatment, P-FTS 35, 50 mg/kg/d, and P-FTS 35, 100 mg/kg/d reduced the tumor volume growth by 62% and 65%, respectively (p<0.05; FIG. 5).

[4] = test system: Ras; assay: Ras-GTP pull down assay in Panc-1 cells; type: cell-based, human; conditions: 24 h
Text: (§2) In the following experiments it was examined whether the pancreatic cancer growth inhibitory effect of P-FTS 35 is associated with down regulation of Ras signaling. For this purpose, we used the Ras-GTP pull down assay.

[5] = test system: Ras; assay: Ras-GTP pull down assay in lysates from MIA PaCa-2 xenografts; type: in vivo, nude mice; conditions: compared to controls
Method: as §1

[6] = 3-week oral toxicity in BALB/c mice; type: in vivo
Method: The toxicity of P-FTS 35 in mice was further examined. Groups of 6 week-old female BALB/c mice (5 mice/group) were given by oral gavage once a day for 3 weeks P-FTS 35: 0, 75, 150, 250 and 350 mg/kg. […] The (sub-chronic) maximum tolerated dose of P-FTS 35 (3-wk period of observation) was determined to be at least 350 mg/kg/d.

[7] = test system: p-ERK1/2; assay: Immunostaining of xenograft tissue sections; type: in vivo, nude mice; conditions: compared to control
Method: C: Growth of xenograft tumors treated without or with P-FTS 35 and stained for p-ERK expression. The percentage of p-ERK positive cells/field were determined and expressed as the mean±SEM (*P<0.03).
as §1

[8] = test system: Capan-2; assay: Pancreatic cancer cell growth, 24 h; type: cell-based, human; conditions: Capan-2, escalating concentrations
Method: (§3) Cell growth was determined in the human pancreatic cancer cell lines AsPC-1, CFPAC-1, Capan-2, Panc-1 and MIA PaCa-2 after treatment with escalating concentrations of P-FTS 35 for 24 h.

[9] = test system: MIA PaCa-2; assay: Pancreatic cancer cell growth, 24 h; type: cell-based, human; conditions: MIA PaCa-2, escalating concentrations
Method: as §3

[10] = test system: CFPAC-1; assay: Pancreatic cancer cell growth, 24 h; type: cell-based, human; conditions: CFPAC-1, escalating concentrations
Method: as §3

[11] = test system: Panc-1; assay: Pancreatic cancer cell growth, 24 h; type: cell-based, human; conditions: Panc-1, escalating concentrations
Method: as §3

[12] = test system: AsPC-1; assay: Pancreatic cancer cell growth, 24 h; type: cell-based, human; conditions: AsPC-1, escalating concentrations
Method: as §3

[13] = test system: RAF/MEK/ERK and PI3K/AKT pathways; assay: Immunoblots of Ras downstream effectors in Panc-1 cells; type: cell-based, human
Text: C: Immunoblots of p-c-RAF, c-RAF, p-MEK, MEK, p-AKT and AKT in whole cell protein extracts from Panc-1 cells treated with P-FTS 35 as indicated. Loading control: β-actin.
as §2

[14] = test system: MDA-MB-231 human BC cells; assay: Prevention of orthotopic MDA-MB-231 breast cancer xenografts in nude mice; type: in vivo; conditions: PA 120 mg/kg/d orally, from 1 wk prior to inoculating the cells
[15] = Levels of PA and metabolites in blood and xenografts by HPLC; type: in vivo, mice; conditions: for metabolites detected in plasma and xenograft tumors: mice treated with PA or ASA
Method: The levels of PA and some of its metabolites in blood and xenografts from these mice were determined by HPLC according to the methods described by G. Xie et al. (Br J Pharmacol. 2012; 167(1):222-32).

[16] = Tolerated dose in mice (PA, ASA); type: in vivo
Method: The ability of phospho-aspirin (PA) to prevent breast cancer (BC) was evaluated using MDA-MB-231 human BC cells xenografted into one of the mammary glands of nude mice (orthotopic xenografts). PA was administered orally, 120 mg/kg/d 1 wk prior to inoculating the cells (the standard prevention protocol); acetylsalicylic acid (ASA) was given at an equimolar dose of 40 mg/kg/d. This was the highest dose of ASA that these mice could tolerate on a long-term basis. The dose of PA represents <10% of its maximum tolerated dose (MTD≧1,600 mg/kg), but was chosen so that a comparison between PA and ASA was possible.

[17] = test system: liver microsomes; assay: Metabolism in liver microsomes (HPLC)
[18] = biological target: CYP 2C19 (Homo sapiens, UniProt P33261); assay: Metabolism by recombinant human CYP isoforms; type: in vitro ADME; conditions: recombinant human CYP 25 pmol/ml, 37° C., NADPH-regenerating solution
[19] = test system: liver microsomes
[20] = biological target: CYP 1A2 (Homo sapiens, UniProt P05177); assay: Metabolism by recombinant human CYP isoforms; type: in vitro ADME; conditions: recombinant human CYP 25 pmol/ml, 37° C., NADPH-regenerating solution
[21] = biological target: CYP 2C9 (Homo sapiens, UniProt P11712); assay: Metabolism by recombinant human CYP isoforms; type: in vitro ADME; conditions: recombinant human CYP 25 pmol/ml, 37° C., NADPH-regenerating solution
[22] = biological target: CYP 3A4 (Homo sapiens, UniProt P08684); assay: Metabolism by recombinant human CYP isoforms; type: in vitro ADME; conditions: recombinant human CYP 25 pmol/ml, 37° C., NADPH-regenerating solution
[23] = biological target: CYP 2D6 (Homo sapiens, UniProt P10635); assay: Metabolism by recombinant human CYP isoforms; type: in vitro ADME; conditions: recombinant human CYP 25 pmol/ml, 37° C., NADPH-regenerating solution
[24] = cited from earlier work

CYP 1A2, sequence (P05177 whole entry, canonical isoform): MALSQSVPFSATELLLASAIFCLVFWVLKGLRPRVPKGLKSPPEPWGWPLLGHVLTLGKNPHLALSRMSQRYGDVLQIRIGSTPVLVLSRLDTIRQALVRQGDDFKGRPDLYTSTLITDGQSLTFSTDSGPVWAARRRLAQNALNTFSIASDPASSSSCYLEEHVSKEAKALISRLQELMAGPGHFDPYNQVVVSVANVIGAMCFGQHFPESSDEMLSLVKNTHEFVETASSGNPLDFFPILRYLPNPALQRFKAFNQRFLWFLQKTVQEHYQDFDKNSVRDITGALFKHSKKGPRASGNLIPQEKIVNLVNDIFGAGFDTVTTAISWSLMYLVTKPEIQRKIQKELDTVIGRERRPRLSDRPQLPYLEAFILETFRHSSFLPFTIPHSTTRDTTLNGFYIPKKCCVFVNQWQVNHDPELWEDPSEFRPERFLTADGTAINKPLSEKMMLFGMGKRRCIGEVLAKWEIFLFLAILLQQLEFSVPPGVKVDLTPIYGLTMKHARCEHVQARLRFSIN
CYP 3A4, sequence (P08684 whole entry, canonical isoform): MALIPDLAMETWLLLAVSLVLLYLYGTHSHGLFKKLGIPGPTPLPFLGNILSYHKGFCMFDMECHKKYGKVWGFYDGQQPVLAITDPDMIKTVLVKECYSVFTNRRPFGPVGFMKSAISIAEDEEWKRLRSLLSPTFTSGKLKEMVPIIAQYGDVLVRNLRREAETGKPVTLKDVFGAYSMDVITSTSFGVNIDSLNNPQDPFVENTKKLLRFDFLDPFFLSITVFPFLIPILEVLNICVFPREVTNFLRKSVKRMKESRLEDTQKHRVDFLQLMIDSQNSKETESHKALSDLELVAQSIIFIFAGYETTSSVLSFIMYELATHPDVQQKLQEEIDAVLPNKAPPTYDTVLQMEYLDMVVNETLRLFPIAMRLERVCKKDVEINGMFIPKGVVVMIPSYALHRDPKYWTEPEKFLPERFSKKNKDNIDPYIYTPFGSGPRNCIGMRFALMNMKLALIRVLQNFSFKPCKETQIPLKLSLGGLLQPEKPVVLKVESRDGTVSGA
CYP 2D6, sequence (P10635 whole entry, canonical isoform): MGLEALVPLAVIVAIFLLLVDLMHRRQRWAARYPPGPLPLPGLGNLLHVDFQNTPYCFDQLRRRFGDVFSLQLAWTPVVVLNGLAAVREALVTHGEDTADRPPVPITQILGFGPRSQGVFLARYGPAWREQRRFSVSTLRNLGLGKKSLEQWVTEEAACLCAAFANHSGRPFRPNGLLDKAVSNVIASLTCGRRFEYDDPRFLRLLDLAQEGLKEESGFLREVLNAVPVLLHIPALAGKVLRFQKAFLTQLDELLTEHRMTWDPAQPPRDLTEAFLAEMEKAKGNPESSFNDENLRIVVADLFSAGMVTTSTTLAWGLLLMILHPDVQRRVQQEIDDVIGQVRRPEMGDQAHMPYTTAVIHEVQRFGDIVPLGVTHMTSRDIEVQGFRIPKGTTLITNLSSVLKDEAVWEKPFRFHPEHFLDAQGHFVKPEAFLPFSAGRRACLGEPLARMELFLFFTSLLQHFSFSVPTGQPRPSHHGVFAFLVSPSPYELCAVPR
CYP 2C19, sequence (P33261 whole entry, canonical isoform): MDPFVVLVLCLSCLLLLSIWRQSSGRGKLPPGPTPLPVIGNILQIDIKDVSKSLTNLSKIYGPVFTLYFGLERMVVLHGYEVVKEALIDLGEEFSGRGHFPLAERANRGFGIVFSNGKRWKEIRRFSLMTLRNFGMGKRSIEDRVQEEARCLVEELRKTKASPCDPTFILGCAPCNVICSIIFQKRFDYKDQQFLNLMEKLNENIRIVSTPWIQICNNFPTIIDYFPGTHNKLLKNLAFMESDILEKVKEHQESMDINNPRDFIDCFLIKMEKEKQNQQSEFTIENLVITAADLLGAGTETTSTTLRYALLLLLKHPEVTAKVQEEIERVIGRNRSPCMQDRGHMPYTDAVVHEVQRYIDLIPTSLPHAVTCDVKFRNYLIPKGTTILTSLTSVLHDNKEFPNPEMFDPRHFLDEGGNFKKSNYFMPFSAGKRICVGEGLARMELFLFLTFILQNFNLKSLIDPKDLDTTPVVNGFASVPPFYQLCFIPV
CYP 2C9, sequence (P11712 whole entry, canonical isoform): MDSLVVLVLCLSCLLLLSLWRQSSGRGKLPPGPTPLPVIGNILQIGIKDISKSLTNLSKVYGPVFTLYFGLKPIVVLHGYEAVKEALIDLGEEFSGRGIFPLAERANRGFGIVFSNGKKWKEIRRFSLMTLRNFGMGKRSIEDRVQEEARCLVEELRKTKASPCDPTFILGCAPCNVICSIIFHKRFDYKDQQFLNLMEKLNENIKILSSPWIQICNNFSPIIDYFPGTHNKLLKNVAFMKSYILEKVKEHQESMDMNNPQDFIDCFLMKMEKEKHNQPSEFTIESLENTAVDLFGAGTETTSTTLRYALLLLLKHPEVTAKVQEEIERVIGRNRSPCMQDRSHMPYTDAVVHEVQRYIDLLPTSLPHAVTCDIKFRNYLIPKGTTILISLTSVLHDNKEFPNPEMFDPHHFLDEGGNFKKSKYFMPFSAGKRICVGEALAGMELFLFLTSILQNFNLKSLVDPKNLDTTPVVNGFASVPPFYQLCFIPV

CCOP(=O)(OCC)OCCCCOC(=O)c1ccccc1SC/C=C(\C)CC/C=C(\C)CCC=C(C)C
p-ERK and p-AKT in xenografts by immunoblotting [1]: inhibition of p-ERK and p-AKT
reduction of expression of p-c-RAF [2]: 73%
reduction of tumor volume growth ([3]; 50 mg/kg/d oral gavage in corn oil): 62%
reduction of tumor volume growth ([3]; 100 mg/kg/d oral gavage in corn oil): 65%
tolerability in the efficacy study ([3]; 50 or 100 mg/kg/d, 25 days): well tolerated
weight loss or other signs of toxicity in the efficacy study ([3]; 50 or 100 mg/kg/d, 25 days): no weight loss or other signs of toxicity
decrease of Ras-GTP compared with the parent compound (FTS) ([4]; 50 μM): more pronounced
inhibition of active Ras (Ras-GTP) [4]: significantly inhibited active Ras (Ras-GTP) in a concentration-dependent manner
reduction of RAS activation in xenografts ([5]; 50 mg/kg): 62%
reduction of RAS activation in xenografts ([5]; 100 mg/kg): 70%
weight loss or other signs of toxicity ([6]; 75, 150, 250 and 350 mg/kg oral gavage once a day for 3 weeks, female BALB/c mice): no weight loss or other signs of toxicity
MTD at 3 weeks ([6]; female, BALB/c, mouse, in vivo, 3-wk period of observation, oral gavage, read-out: (sub-chronic) maximum tolerated dose): ≥ 350 mg/kg/day
reduction of expression of p-ERK1/2 [7]: 71%
cell growth, % control [8]: decreases pancreatic cancer cell growth in a concentration-dependent manner
cell growth, % control [9]: decreases pancreatic cancer cell growth in a concentration-dependent manner
cell growth, % control [10]: decreases pancreatic cancer cell growth in a concentration-dependent manner
cell growth, % control [11]: decreases pancreatic cancer cell growth in a concentration-dependent manner
cell growth, % control [12]: decreases pancreatic cancer cell growth in a concentration-dependent manner
inhibition of the RAF/MEK/ERK and PI3K/AKT pathways [13]: significant time-dependent inhibition

CCOP(=O)(OCC)OCCCCOC(=O)c1ccccc1OC(C)=O [PA, phospho-aspirin]
average tumor volume reduced compared to controls [14]: 62%
treated mice that had no tumors ([14]; of the 20 treated mice): 20%
treated mice that had tumors <100 mm^3 ([14]; of the 20 treated mice): 30%
intact PA in plasma or xenografts ([15]; mice treated with PA 120 mg/kg/d, HPLC): No intact PA in either plasma or xenografts was detected
metabolites detected in plasma and xenograft tumors [15]: Only salicylic acid (SA) was detected
difference in SA levels between PA and ASA groups ([15]; plasma and xenografts): no difference in SA levels
maximum tolerated dose (MTD) ([16]; mice): ≥ 1,600 mg/kg
major metabolites detected in liver microsomes ([17]; HPLC): phospho-salicylic acid [PSA], 3-OH-PSA and 5-OH-PSA
deacetylation in liver microsomes ([17]; PA-treated liver microsomes): readily deacetylated

CC(=O)Oc1ccccc1C(=O)O [ASA, acetylsalicylic acid]
oxidation (conversion of PSA to 5-OH-PSA) by CYP 2C19 [18]: cannot be oxidized
oxidation by liver microsomes [19]: not appreciably oxidized
oxidation by CYP 1A2 [20]: cannot be oxidized
oxidation by CYP 2C9 [21]: cannot be oxidized
metabolites detected in plasma and xenograft tumors [15]: Only salicylic acid (SA) was detected
oxidation by CYP 3A4 [22]: cannot be oxidized
highest dose that these mice could tolerate on a long-term basis ([16]; nude mice): 40 mg/kg/day
oxidation (conversion of PSA to 5-OH-PSA) by CYP 2D6 [23]: cannot be oxidized

CC1=C(CC(=O)O)c2cc(F)ccc2/C1=C\c1ccc([S+](C)[O-])cc1 (stereo not drawn) [sulindac]
gastrointestinal side effects, share of patients [24]: up to 20%
skin rash and pruritus, share of patients [24]: 5%

O=C(O)c1ccccc1O [SA, salicylic acid]
oxidation by liver microsomes [19]: not appreciably oxidized
